According to US5770201A, “HA-2 antigenic peptide” (Rijsuniversiteit Te Leiden, priority 1994, dated 1998):
Where no end group is shown, it is not given here.

Tested on: T2 cell line for lysis by clone 5H17
Assay: 51Cr release assay: peptide sensitization of T2 for lysis by HA-2 specific CTL clone 5H17
Assay type: cell-based, human
Conditions: T2 cells

YXGEVXVSV (X: residue not identified in the source) [synthetic peptide mixture, X stands for L or I]
HA-2 specific sensitizing CTL activity (lysis of T2): resulted in lysis of T2
